The values that follow come from patent US12116343B2, “Inhibitors of APOL1 and methods of using same” (Vertex Pharmaceuticals Incorporated, priority 2020, dated 2024).

This assay deals with T1, G1 APOL1 (Homo sapiens, UniProt O14791, I384M/S342G).
T1 construct: expressed in transfected cells
T1 sequence (O14791 28-398 S342G/I384M): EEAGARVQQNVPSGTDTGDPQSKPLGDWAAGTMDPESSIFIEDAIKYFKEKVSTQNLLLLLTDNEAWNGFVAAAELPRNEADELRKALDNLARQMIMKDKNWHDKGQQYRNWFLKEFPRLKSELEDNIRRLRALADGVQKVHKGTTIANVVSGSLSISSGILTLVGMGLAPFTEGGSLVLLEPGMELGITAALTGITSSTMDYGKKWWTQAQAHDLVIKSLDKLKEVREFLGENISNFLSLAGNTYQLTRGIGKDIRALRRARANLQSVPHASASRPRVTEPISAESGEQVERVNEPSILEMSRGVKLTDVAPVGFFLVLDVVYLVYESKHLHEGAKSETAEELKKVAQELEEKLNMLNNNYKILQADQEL
Put plainly: Acute APOL1 Thallium Assay with inducible stable clones of HEK 293 cells. The note with it: HEK 293 T-Rex cells expressing G1 APOL1; read-out: Thallium Assay (IC50). Type of assay: cell-based. In a few lines: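 Tetracycline-inducible HEK293 T-Rex clone G1 DC3.25 expressing G1 APOL1, plated at 26000 cells/well in Opti-MEM with tetracycline induction. APOL1 pore activity read on FLIPR as fluorescence increase from Tl+ influx into cells loaded with a Tl+-sensitive AM-ester dye.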

One may read the IC50 as the midpoint of a concentration-inhibition curve. For `O=C1NCC[C@H]1NC(=O)[C@H]1C[C@H](c2c(-c3ccc(F)cc3)[nH]c3c(F)cc(F)cc32)C1` [Compound 45], the half-maximal inhibitory concentration (IC50) was in the range of 0.25 to 1 µM.

Take `CC(C)N1CCN(C(=O)[C@H]2C[C@H](c3c(-c4ccc(F)cc4)[nH]c4c(F)cc(F)cc43)C2)CC1=O` [Compound 63]: the IC50 was above 1 µM.

As to `CCNC(=O)[C@@H]1CCCN1C(=O)[C@H]1C[C@H](c2c(-c3ccc(F)cc3)[nH]c3c(F)cc(F)cc32)C1` [Compound 64], the IC50 is above 1 µM.

For `CN(CC(N)=O)C(=O)[C@H]1C[C@H](c2c(-c3ccc(F)cc3)[nH]c3c(F)cc(F)cc32)C1` [Compound 51], the IC50 is 0.25 to 1 µM.

On to `CN(CC(C)(C)O)C(=O)[C@H]1C[C@H](c2c(-c3ccc(F)cc3)[nH]c3c(F)cc(F)cc32)C1` [Compound 93], for which the IC50 was above 1 µM.

Take `O=C(NC1(CCO)CC1)[C@H]1C[C@H](c2c(-c3ccc(F)cc3)[nH]c3c(F)cc(F)cc32)C1` [Compound 59]: the half-inhibitory concentration (IC50) fell in the range of 0.25 to 1 µM.
